Assay results from US20050059627A1, “CRF2 ligands in combination therapy” (priority 2000, published 2005).
d = 2'-deoxy (DNA); m = 2'-O-methyl

Tests used:
CRF2 receptors = test: CRF2 receptor autoradiography: 125I-sauvagine binding in lateral septum of treated rats; format: in vivo, rat
Protocol: Rats were sacrificed by exposure to CO2. Brains were removed and frozen in methylbutane cooled on dry ice before storage at −80° C. Twenty μm sections through the lateral septum were cut on a cryostat(Kopf Instruments) for receptor autoradiography.
After warming to room temperature for 1 hour, brain sections were preincubated for 5 minutes in 50 mM Tris-HCL (pH 7.5) containing 10 mM MgCl2, 2 mM EGTA (ethylene glycol-bis(β-aminoethyl ether)N,N,N′,N′-tetraacetic acid), 0.1% ovalbumin, 0.08 TIU aprotinin and 0.1 mM bacitracin. Total binding was defined using 0.15 nM ^125I-sauvagine (New England Nuclear). CRF2 specific binding was determined in the presence of 1 μM SC-241, a CRF1 selective receptor antagonist (D. H. Rominger et alJ. Pharmacol. Exp. Therap., 286, 459-468, 1998). Non-specific binding was determined using 1 μM a-helical CRF (American Peptide). Incubations were performed in preincubation buffer containing radioligand and appropriate antagonists for 150 minutes. Tissue sections were then washed twice for 5 minutes each, in PBS containing 0.01% Triton X-100. After a final water rinse, excess water was aspirated and the sections were air-dried overnight. The sections and ^125I standard strips (Amersham) were exposed to Hyperfilm μ-Max (Amersham) for 72 hours.
Quantitation of CRF2 specific binding was performed using the NIH ImageMG 1.44 program. Optical density readings were converted to nCi of ligand bound per mg of protein tissue using ^125I standard strips. Between 7 to 9 adjacent sections were quantitated per rat.

rats [1] = test: Elevated plus maze assay; format: in vivo, rat; settings: dosed 8 days, tested 2 hours after last injection; FIG. 4a
From the text: The elevated plus maze (EPM) is widely used for the determination of anxiolytic or anxiogenic drug effects. The apparatus consists of a +-shaped maze, elevated 50 cm above the floor. Two opposing arms are open and exposed to the environment while the other two arms are enclosed with black Plexiglas sides. In rodents, exposure to the EPM produces an approach/avoidance conflict which generally causes the animal to spend most of its time in the closed arms of the maze.
In the antisense experiment, rats were dosed for 8 days and then tested in the EPM 2 hours after the last oligonucleotide injection. […] Such behavior is indicative of a reduced state of anxiety. […] Binding of ^125I-sauvagine to CRF2 receptors in the lateral septum was reduced by 60% by the antisense oligonucleotide in this experiment (FIG. 4b).
Oligonucleotide treatment of rats was begun on the 8th day following surgery. Rats were tested in the EPM 2 hours following dosing on the 8th day of treatment. At the start of the test, the rat was placed in the center square of the maze and its exploratory behavior during the ensuing 10 minutes was recorded by video-camera. An observer situated outside the test room scored the time spent in the open and closed arms, as well as the number of entries into each arm of the maze. The rats were euthanitized immediately following the conclusion of the test.

rats [2] = test: Freezing assay of anxiety (shock box); format: in vivo, rat
Protocol: CRF2 antisense oligonucleotides were administered intracerebroventricularly to target the lateral septum, a brain region containing high levels of CRF2 receptor and mRNA. The lateral septum is part of the limbic brain region known for its involvement in modulating fear and emotion. Rats treated with saline, antisense and mismatch-control oligonucleotides were tested in two different behavioral models of anxiety. Rodents display a characteristic freezing behavior when experiencing fear and anxiety. In the freezing model of anxiety, such behavior is induced by exposure to brief electrical foot-shocks. […] Administration of anxiolytic drugs such as benzodiazepines and selective serotonin reuptake inhibitors reduces the duration of freezing when previously shocked animals are returned to the shock box. In the antisense experiments, dosing of oligonucleotides began after two consecutive days of foot-shock treatment. Two hours following the last oligonucleotide administration on day 8 of dosing, rats were returned to the shock box and observed for 10 minutes. In this part of the experiment, which examines the effect of the pharmacological agent on conditioned fears, the antisense oligonucleotide, but not its mismatch control, reduced the duration of freezing by 50% (FIG. 3a). […] Furthermore, a robust suppression of CRF2 receptors produced important functional consequences that may not be apparent at lower levels of CRF2 receptor inhibition.
The shock box consisted of a black Plexiglas chamber with walls and cover. The doors of the box were constructed of clear Plexiglas over which one-way mirrors were attached for observation. The floor of the box contained a Coulbourn stainless steel shock grid with the bars of the grid spaced 1 cm apart. On the 8th day following surgical implantation of the guide cannulae, rats were placed in the box and allowed to habituate for 2 minutes. A total of 3 scrambled, randomized non-escapable foot-shocks (1.0 mA, 1 second duration) were then delivered at 20 second intervals to the grid floor. […]

CRF2 receptor mRNA = test: Quantitative in situ hybridization of CRF2 receptor mRNA; format: in vivo, rodent; settings: 9 days dosing
From the text: The absence of functional changes resulting from small antisense inhibitory effects often leads to non-interpretable results. This is due to the uncertainty of whether the experiment produced truly negative results or whether the antisense inhibition was insufficient to reveal a functional change. In addition to the antisense sequence, the magnitude of antisense inhibitory effects is influenced by the duration of antisense treatment and its relation to the half-life of the targeted protein. While the half-life of the CRF2 receptor is unknown, half-lives of other 7-transmembrane receptors in rodent brain (of which the CRF2 receptor is a member) are on the order of 2-3 days. Maximal inhibitory effects are typically seen after antisense treatment for at least 3 protein half-lives. While CRF2 antisense administration for 5 days produced a 40-50% inhibition of the receptor, increasing the duration of dosing to 9 days led to a 70-80% inhibitory effect on receptor binding. […] Therefore, in contrast to Heinrichs et al. whose CRF2 antisense oligonucleotide produced only a 15-20% CRF2 receptor reduction concomitant with significant weight loss in the treated animals, we have optimized antisense reagents for the study of CRF2 receptor function.

Row | Sequence | inhibition of the receptor (CRF2 receptors; administration for 5 days) | CRF2 receptor binding (CRF2 receptors; combination study, saline/methocel control 1.20±0.05) [nCi/mg] | inhibitory effect on receptor binding (CRF2 receptors; dosing for 9 days) | reduction of binding of 125I-sauvagine to CRF2 receptors in the lateral septum (CRF2 receptors; rats of the elevated plus maze experiment, FIG. 4b) [%] | reduction in 125I-sauvagine binding to CRF2 receptors (CRF2 receptors; septal brain region of rats of the freezing assay, FIG. 3b) [%] | time in the open arms of the maze (rats [1]) | reduction in the duration of freezing (rats [2]; after two brief foot-shocks, additional 10 minutes, vs saline or mismatch, FIG. 3a) [%] | freezing in the conditioned anxiety test (rats [2]; combination study: antisense icv 7 days, DPC904 oral, FIG. 7b) | reduction of duration of freezing (rats [2]; conditioned fear, icv, return to shock box, first 10 minutes, FIG. 3a) [%] | decrease in CRF2 receptor mRNA (CRF2 receptor mRNA) | decrease in receptor binding (CRF2 receptors; 9 days dosing)
1 | TGA CGC agc ggc acC AGA CC (TGACGCAGCGGCACCAGACC; sugars from the 5' end m6 d8 m6, linkages o6 s8 o5 (s phosphorothioate, o phosphodiester), methylation of C not given here) [antisense oligonucleotide] | 40-50% | 0.51±0.08 | 70-80% | 60 | 70 | significantly more time in the open, exposed arms | 50 | significant reductions in freezing | 50 | comparable decreases | 
2 | TGA GGC acc gga acC ACA CC (TGAGGCACCGGAACCACACC; sugars from the 5' end m6 d8 m6, linkages o6 s8 o5 (s phosphorothioate, o phosphodiester), methylation of C not given here) [Mismatch oligonucleotide, 4-base mismatch control of the antisense oligonucleotide, same chimeric chemistry, reference compound] |  |  |  |  |  | not statistically different from saline-treated rats |  |  |  | minimal decreases | minimal decreases
